For 1 compound, MIC and ED50 results are on record in patent US4808584A, “Quinolinecarboxylic acid derivatives and antibacterial agent containing the same” (Kanebo, Ltd., priority 1987, dated 1989).

The subject of test [1] is Pseudomonas aeruginosa IFO 3445. Nature of the test: Minimum inhibitory concentration (MIC). It is filed as cell-based. Conditions: Pseudomonas aeruginosa, IFO3445, Pseudomonas aeruginosa IFO 3445, Gram -. Summed up:
(§1)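 Test compounds were dissolved at 5000 μg/ml (stock) in 0.1N aqueous KOH or in sterilized distilled water, then diluted with sterile water to a 1000 μg/ml standard solution. MICs were determined by the Japan Society of Chemotherapy standard method.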

For test [2], the system named is Escherichia coli NIHJ JC-2. The test is described as follows: Minimum inhibitory concentration (MIC). It is filed as cell-based. The settings on record: NIHJJC2; Escherichia coli NIHJ JC-2, Gram -. In short, it runs like this:
as §1

A further test relates to Escherichia coli KC-14. Nature of the test: Minimum inhibitory concentration (MIC). Format: cell-based. Conditions: KC14; Escherichia coli KC-14, Gram -. In short, it runs like this: as §1
Test [3] concerns Staphylococcus epidermidis IAM-1296. Nature of the test: Minimum inhibitory concentration (MIC). Conditions: Staphylococcus epidermidis, IAM1296, Staphylococcus epidermidis IAM-1296, Gram +. It is filed as cell-based. In short, it runs like this: as §1
For test [4], the system named is Pseudomonas aeruginosa E-2. The test is described as follows: Minimum inhibitory concentration (MIC). Format: cell-based. Conditions: E2; Pseudomonas aeruginosa E-2, Gram -. Summed up: as §1
In test [5] the test system is Pseudomonas aeruginosa NCTC 10490. The test is described as follows: Minimum inhibitory concentration (MIC). Format: cell-based. The settings on record: Pseudomonas aeruginosa, NCTC10490, Pseudomonas aeruginosa NCTC 10490, Gram -. Summed up: as §1
For test [6], the system named is Micrococcus luteus ATCC 9341. The test is described as follows: Minimum inhibitory concentration (MIC). The settings on record: ATCC9341; Micrococcus luteus ATCC 9341, Gram +. Format: cell-based. In short, it runs like this: as §1
Test [7] relates to Staphylococcus aureus FDA 209P JC-1. Nature of the test: Minimum inhibitory concentration (MIC). It is filed as cell-based. Conditions: FDA209P; Staphylococcus aureus FDA 209P JC-1, Gram +. Summed up: as §1
In test [8] the test system is Salmonella typhimurium IID 971. The test is described as follows: Minimum inhibitory concentration (MIC). Format: cell-based. Conditions: Salmonella enterica, Salmonella typhimurium IID 971, Gram -; read-out: Minimum inhibitory concentration (MIC). Summed up:
as §1

In test [9] the test system is Proteus mirabilis IFO 3849. The test is described as follows: Minimum inhibitory concentration (MIC). Conditions: IFO3849; Proteus mirabilis IFO 3849, Gram -. It is filed as cell-based. In short, it runs like this:
as §1

The subject of test [10] is Staphylococcus aureus IID 803. Nature of the test: Minimum inhibitory concentration (MIC). The settings on record: IID803; Staphylococcus aureus IID 803, Gram +; read-out: Minimum inhibitory concentration (MIC). It is filed as cell-based. In short, it runs like this: as §1
The next test relates to Proteus vulgaris OX-19. Nature of the test: Minimum inhibitory concentration (MIC). It is filed as cell-based. Conditions: OX19; Proteus vulgaris OX-19, Gram -; read-out: Minimum inhibitory concentration (MIC). In short, it runs like this:
as §1

Test [11] has as its system Acinetobacter calcoaceticus AC 54. The test is described as follows: Minimum inhibitory concentration (MIC). Format: cell-based. Conditions: Acinetobacter calcoaceticus, AC54, Acinetobacter calcoaceticus AC 54, Gram -. In short, it runs like this: as §1
In test [12] the test system is Bacillus subtilis ATCC 6633. Nature of the test: Minimum inhibitory concentration (MIC). It is filed as cell-based. The settings on record: ATCC6633; Bacillus subtilis ATCC 6633, Gram +; read-out: Minimum inhibitory concentration (MIC). In short, it runs like this: as §1
Test [13] has as its system Enterobacter aerogenes ATCC 13048. Nature of the test: Minimum inhibitory concentration (MIC). It is filed as cell-based. The settings on record: Klebsiella aerogenes, ATCC13048, Enterobacter aerogenes ATCC 13048, Gram -. Summed up:
as §1

For test [14], the system named is Morganella morganii IFO 3848. Nature of the test: Minimum inhibitory concentration (MIC). Format: cell-based. Conditions: IFO3848; Morganella morganii IFO 3848, Gram -. In short, it runs like this: as §1
The subject of test [15] is Citrobacter freundii NIHJ 10018-68. Nature of the test: Minimum inhibitory concentration (MIC). Format: cell-based. Conditions: NIHJ10018; Citrobacter freundii NIHJ 10018-68, Gram -. In short, it runs like this:
as §1

The test system of test [16] is Klebsiella pneumoniae PCI 602. Nature of the test: Minimum inhibitory concentration (MIC). Format: cell-based. Conditions: Klebsiella pneumoniae, PCI602, Klebsiella pneumoniae PCI 602, Gram -; read-out: Minimum inhibitory concentration (MIC). Summed up:
as §1

The test system of another test is Shigella sonnei EW-33. Nature of the test: Minimum inhibitory concentration (MIC). It is filed as cell-based. Conditions: EW33; Shigella sonnei EW-33, Gram -. In short, it runs like this:
as §1

The test system of test [17] is Serratia marcescens IAM 1184. The test is described as follows: Minimum inhibitory concentration (MIC). It is filed as cell-based. Conditions: Serratia marcescens, IAM1184, Serratia marcescens IAM 1184, Gram -. Summed up: as §1
The subject of test [18] is Streptococcus faecalis IID 682. The test is described as follows: Minimum inhibitory concentration (MIC). Format: cell-based. The settings on record: Enterococcus faecalis, IID682, Streptococcus faecalis IID 682, Gram +. In short, it runs like this:
as §1

The subject of the next test is Enterobacter cloacae 963. Nature of the test: Minimum inhibitory concentration (MIC). Conditions: Enterobacter cloacae 963, Gram -. It is filed as cell-based. In short, it runs like this: as §1
Test [19] concerns Pseudomonas aeruginosa E-2. The test is described as follows: Effect on treatment of general infectious disease. It is filed as in vivo, ddY male mice. Conditions: E2, 168 h, P. aeruginosa E-2, 1.6×10^4 CFU/mouse i.p., oral one hour after infection, survival after one week. The method, then: Pseudomonas aeruginosa E-2 (1.6×10^4 CFU/mouse)
The test microorganisms were subjected to standing culture in Trypto-Soya Agar "Nissui" (made by Nissui Seiyaku K.K., Japan) at 37° C. for 16 to 18 hours. The culture was then diluted with PBS (Dulbecco's phosphate buffered saline) and mixed with an equivalent amount of 10% (w/v) Mucin (BACTO MUCIN BACTERIOLOGICAL, made by Difco Co.) to prepare a microorganism solution. The thus prepared microorganism solution (0.5 ml each) was intraperitoneally innoculated to ddY male mice (4 weeks age, weighing 20-22 g, 5 mice in each group), to infect the animals. One hour after the infection, the compound (B) of the present invention dissolved in sterilized distilled water or ofloxacin suspended in 0.5% (w/v) aqueous sodium carboxymethyl cellulose solution was orally adiministered to mice.
The mice were daily observed for one week, and from the survival number of mice after one week, the 50% effective dose (ED50) was calculated by Weil method.

In brackets after ≈: the same amount, converted by molar mass.

The term ED50 denotes the dose at which the effect has come halfway, by size or by number of responders. Higher therefore signals weaker potency.

Turning to `CC1COc2c(N3CCN(C)CC3)c(F)cc3c(=O)c(C(=O)O)cn1c23` (racemic) [Ofloxacin, reference compound], the MIC was 1.56 µg/mL (≈ 4.32 µM) in test [1]; 0.1 µg/mL (≈ 0.277 µM) in test [2]; 0.1 µg/mL (≈ 0.277 µM) against Escherichia coli KC-14; 0.78 µg/mL in test [3]; 1.56 µg/mL (≈ 4.32 µM) in test [4]; 1.56 µg/mL (≈ 4.32 µM) in test [5]. Further, the MIC worked out at 3.13 µg/mL in test [6]; 0.39 µg/mL in test [7]; 0.05 µg/mL (≈ 0.138 µM) in test [8]; 0.39 µg/mL (≈ 1.08 µM) in test [9]; 0.39 µg/mL (≈ 1.08 µM) in [10]; 0.05 µg/mL (≈ 0.138 µM) in the test with Proteus vulgaris OX-19. Moreover, the MIC in test [11] is 0.39 µg/mL (≈ 1.08 µM); in test [12], 0.1 µg/mL (≈ 0.277 µM); in test [13], 0.1 µg/mL (≈ 0.277 µM); in [14] it was 0.1 µg/mL (≈ 0.277 µM); in test [15] it was 0.39 µg/mL (≈ 1.08 µM); in [16] it was 0.05 µg/mL (≈ 0.138 µM). Moreover, the MIC in the test on Shigella sonnei EW-33 was 0.05 µg/mL (≈ 0.138 µM); in test [17] it was 0.78 µg/mL (≈ 2.16 µM); in [18], 1.56 µg/mL; with Enterobacter cloacae 963, 0.2 µg/mL (≈ 0.553 µM). Moreover, it took a dose of 22.9 mg/kg to reach the 50% effect level in test [19] (ED50).
